Assay results from paper PMC12796986 (Journal of medicinal chemistry, 2025).
In brackets after ≈: the same amount, converted by molar mass. Like-named read-outs stand apart in the source and are kept apart here.

Experiments:
mpox resolvase (Mpr) = mpox resolvase (Mpr) (Monkeypox virus, UniProt A0A7H0DNC1); test: biochemical; format: biochemical
VACV-Gluc reporter virus = test: microbe, parasite or virus in culture; format: cell-based, vaccinia virus; settings: for EC50: Orthopoxvirus vaccinia, HFF, 24 h, read-out: VACV EC50
in vitro [1] = settings: human
physchem = settings: pH 7.2, aqueous buffer, kinetic from dmso stock
in vitro [2] = settings: human, plasma, pH 7.4
in vitro [3] = settings: human, microsomes, pH 7.4
in vitro [4] = settings: PAMPA
[5] = pH 7.2
[6] = microsomes
[7] = system: fowlpox virus resolvase (Fpr); settings: read-out: Fpr IC50; cited from earlier work

mpox resolvase (Mpr), sequence (A0A7H0DNC1 whole entry, looked up): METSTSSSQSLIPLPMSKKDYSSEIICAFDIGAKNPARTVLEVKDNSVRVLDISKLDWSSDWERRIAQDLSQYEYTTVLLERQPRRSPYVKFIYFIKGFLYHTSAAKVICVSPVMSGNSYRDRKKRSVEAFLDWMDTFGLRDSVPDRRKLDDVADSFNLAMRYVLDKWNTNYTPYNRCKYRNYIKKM

| Compound | IC50 (mpox resolvase (Mpr)) | SI (selectivity index, CC50 / EC50) (VACV-Gluc reporter virus) | EC50 (VACV-Gluc reporter virus) | CC50 (in vitro [1]) | solubility (physchem) | half-life (in vitro [2]) | half-life (in vitro [3]) | Papp (in vitro [4]) | fold improvement in Mpr inhibition over C-6 regioisomer (compound 3 for 5-1) (mpox resolvase (Mpr)) | fold better antiviral potency than brincidofovir (VACV-Gluc reporter virus) | fold improvement in antiviral potency against VACV over compound 3 (VACV-Gluc reporter virus) | solubility [5] | human microsomal stability [6] | IC50 [7] |
| --- | --- | --- | --- | --- | --- | --- | --- | --- | --- | --- | --- | --- | --- | --- |
| O=c1c(-c2ccccc2)c(O)c2cc(-c3ccc(Oc4ccccc4)cc3)cnc2n1O [4a-3, 1,4-dihydroxy-6-(4-phenoxyphenyl)-3-phenyl-1,8-naphthyridin-2(1H)-one] | 120 ± 10 nM | >1.9 × 10^2 | 1300 ± 400 nM | > 250000 nM | 86 ± 5 µM (≈ 36.3 µg/mL) | > 24 h | 0.715 ± 0.0117 h | 8.6 ± 0.8 ×10⁻⁶ cm/s |  |  |  |  |  |  |
| O=c1c(-c2ccccc2)c(O)c2cc(-c3ccccc3)cnc2n1O [4a-5, 1,4-dihydroxy-3,6-diphenyl-1,8-naphthyridin-2(1H)-one] | 900 ± 200 nM | >1.0 × 10^2 | 2400 ± 300 nM | > 250000 nM |  |  |  |  |  |  |  |  |  |  |
| COc1ccc(-c2cnc3c(c2)c(O)c(-c2ccccc2)c(=O)n3O)cc1F [4a-10, 6-(3-fluoro-4-methoxyphenyl)-1,4-dihydroxy-3-phenyl-1,8-naphthyridin-2(1H)-one] | 1600 ± 200 nM | >26 | 9700 ± 300 nM | > 250000 nM |  |  |  |  |  |  |  |  |  |  |
| CCc1c(O)c2cc(-c3ccc(-c4ccccc4)cc3)cnc2n(O)c1=O [4b-2, 6-([1,1’-biphenyl]-4-yl)-3-ethyl-1,4-dihydroxy-1,8-naphthyridin-2(1H)-one] | 360 ± 20 nM | >6.4 × 10^2 | 390 ± 10 nM | > 250000 nM | 1.4 ± 0.1 µM (≈ 0.502 µg/mL) | > 24 h | > 2 h | 3.8 ± 0.1 ×10⁻⁶ cm/s |  |  |  |  |  |  |
| CCc1c(O)c2cc(-c3ccc(Oc4ccccc4)cc3)cnc2n(O)c1=O [4b-3, 3-ethyl-1,4-dihydroxy-6-(4-phenoxyphenyl)-1,8-naphthyridin-2(1H)-one] | 320 ± 60 nM | >1.5 × 10^2 | 1600 ± 100 nM | > 250000 nM | 47 ± 4 µM (≈ 17.6 µg/mL) | > 24 h | 0.587 ± 0.0133 h | 5.2 ± 0.6 ×10⁻⁶ cm/s |  |  |  |  |  |  |
| O=c1c(-c2ccccc2)c(O)c2c(-c3cccc(-c4ccccc4)c3)ccnc2n1O [5-1, 5-([1,1’-biphenyl]-3-yl)-1,4-dihydroxy-3-phenyl-1,8-naphthyridin-2(1H)-one] | 36 ± 1 nM | 4.7 × 10^4 | 3.2 ± 0.7 nM | 150000 nM | 130 ± 4 µM (≈ 52.8 µg/mL) | > 24 h | > 2 h | 9 ± 1 ×10⁻⁶ cm/s | 10 fold | 2 fold | 400 fold | acceptable solubility | excellent human microsomal stability |  |
| O=c1cc(O)c2c(-c3cccc(-c4ccccc4)c3)ccnc2n1O [5-3, 5-([1,1’-biphenyl]-3-yl)-1,4-dihydroxy-1,8-naphthyridin-2(1H)-one] | 15 ± 1 nM |  | 6000 ± 1000 nM | > 250000 nM |  |  |  |  | 10 fold |  |  |  |  |  |
| CSc1ccc(-c2ccnc3c2c(O)cc(=O)n3O)cc1 [5-4, 1,4-dihydroxy-5-(4-(methylthio)phenyl)-1,8-naphthyridin-2(1H)-one] | 120 ± 10 nM |  |  |  |  |  |  |  |  |  |  |  |  |  |
| O=c1c(-c2ccccc2)cc2cc(-c3cccc(-c4ccccc4)c3)cnc2n1O [6-1, 6-([1,1’-biphenyl]-3-yl)-1-hydroxy-3-phenyl-1,8-naphthyridin-2(1H)-one] | > 50000 nM |  |  |  |  |  |  |  |  |  |  |  |  |  |
| CSc1cccc(-c2cnc3c(c2)cc(-c2ccccc2)c(=O)n3O)c1 [6-2, 1-hydroxy-6-(3-(methylthio)phenyl)-3-phenyl-1,8-naphthyridin-2(1H)-one] | > 50000 nM |  |  |  |  |  |  |  |  |  |  |  |  |  |
| CCCCCCCCCCCCCCCCOCCCOP(=O)(O)CO[C@H](CO)Cn1ccc(N)nc1=O [Brincidofovir, brincidofovir, reference compound] |  | >3 × 10^4 | 7 ± 4 nM | > 250000 nM |  |  |  |  |  |  |  |  |  |  |
| O=c1c(-c2ccccc2)c(O)c2cc(-c3cccc(-c4ccccc4)c3)cnc2n1O [compound 3, 6-([1,1’-biphenyl]-3-yl)-1,4-dihydroxy-3-phenyl-1,8-naphthyridin-2(1H)-one] | 340 ± 60 nM | >1.9 × 10^2 | 1300 ± 300 nM | > 250000 nM | 130 ± 8 µM (≈ 52.8 µg/mL) | > 24 h | > 2 h | 6 ± 2 ×10⁻⁶ cm/s |  |  |  | acceptable solubility | excellent human microsomal stability | 300 nM |
